Laboratory results taken from patent US6930104B2, “Heterocyclic derivatives” (Takeda Chemical Industries, Ltd., priority 2001, dated 2005).
Values belong to the compound of their own block, whether it stands above or below them.

Tests used:
[1] = tested on: sAPP secretion in PC12h cells; assay: Stimulatory effects on sAPP secretion (Western blotting of culture supernatant); format: cell-based, rat; conditions: 5 hours after addition; for increase in sAPP production compared to the control group: averaged from triplicate wells
Description: (§1) PC12h cells, a subspecies of rat-derived pheochromocytoma PC12 cells, were provided by the late Professor Hiroshi Hatanaka (Osaka University, Japan). Dulbecco's modified Eagle's medium (DMEM), phosphate buffered saline (PBS), HEPES (N-2-hydroxyethylpiperazine-N′-2-ethanesulfonic acid) buffer (pH 7.4), horse serum (HS) and a penicillin (5000 U/ml)/streptomycin (5 mg/ml) mixture were purchased from Gibco BRL. Fetal calf serum (FCS) was purchased from Bioscience PTY. Transferrin, insulin and progesterone were purchased from Sigma. The flasks used for culture were manufactured by Falcon, and the collagen-coated 96-well and 6-well multiwell plates used for assay were manufactured by Iwaki Glass Co., Ltd. (Japan). An LDH assay kit (LDH cytotoxic test Wako) and an anti-βAPP antibody 22C11 were purchased from Wako Pure Chemical Industries, Ltd. (Japan) and Chemicon, respectively. All other chemicals used were commercially available and of reagent grade.
PC12h cells were grown in DMEM culture medium supplemented with 10% FCS, 5% HS and penicillin/streptomycin, and then released by pipetting. The cells were seeded in collagen-coated 6-well plates at a confluency of 50% to 70% and allowed to stand for 1 day. On the following day, the wells were washed once with 10 mM HEPES/DMEM (1 ml) and then filled with 10 mM HEPES/DMEM culture medium (0.5 ml), followed by addition of Example No. 5 or 32. After 5 hours, the culture supernatant was collected from each well. Trichloroacetic acid (final concentration: 15%) was added to the culture supernatant to precipitate proteins, which were then concentrated. After addition of SDS-PAGE sample buffer (Daiichi Pure Chemicals Co., Ltd., Japan), each sample was boiled for 5 minutes, subjected to SDS-PAGE (10/20% gel, ATTO) and then transferred to a PVDF membrane (Bio-Rad Laboratories) at 2 mA/cm^2 for 60 minutes. […] An ECL Plus (Amersham) was used for detection and the signals were digitized by an LAS-1000 plus (Fuji film, Japan), followed by quantification with NIH-image software.

PC12h cells = assay: Inhibitory effects on glutamate-induced cell death (LDH activity of living cells); format: cell-based, rat; conditions: concentration of 1 μM, 72 hours
Description: as §1
PC12h cells were seeded in 96-well plates at a density of 2×10^4 cells/cm^2. […] After 72 hours, living cells were counted. Cell counts were determined as follows: after removal of the culture medium, living cells were solubilized in 0.1% Tween 20-containing PBS and assayed for LDH activity. The results were expressed as % of control, whose LDH activity was set to 100.

SMILES: COc1ccc(C(=O)N2c3ccccc3C(n3c4ccccc4c4ccccc43)CC2C)cc1OC (stereo not drawn) [Example 32, 2,4-cis-4-(9H-9-Carbazolyl)-1-(3,4-dimethoxybenzoyl)-2-methyl-1,2,3,4-tetrahydroquinoline]
- increase in sAPP production compared to the control group ([1]; 1 nM concentration): approximately 2.2 fold

SMILES: COc1ccc(C(=O)N2c3ccccc3C(N3CCCc4ccccc43)CC2C)cc1OC (single isomer, unassigned; (-)) [Example 5, (−)-2,4-cis-1-(3,4-Dimethoxybenzoyl)-2-methyl-4-(1,2,3,4-tetrahydroquinolin-1-yl)-1,2,3,4-tetrahydroquinoline]
- increase in sAPP production compared to the control group ([1]; 10 nM concentration): approximately 2.0 fold
- sAPP level in the culture medium as compared to the control group ([1]; Western blotting with anti-βAPP antibody 22C11): concentration-dependent increase
- inhibition of cell death induced by addition of 1 mM glutamic acid (PC12h cells): completely inhibited

SMILES: COc1ccc(C(=O)N2c3ccccc3C(N3CCSc4ccccc43)CC2C)cc1OC (racemic) [Example 20, 2,4-cis-4-(3,4-Dihydro-2H-1,4-benzothiazin-4-yl)-1-(3,4-dimethoxybenzoyl)-2-methyl-1,2,3,4-tetrahydroquinoline]
- melting point: 178 to 180 °C

The remaining lines, values ahead:

- melting point: 221 to 222 °C
SMILES: CCCC1CC(n2c3ccccc3c3ccccc32)c2ccccc2N1C(=O)c1ccc(OCC)c(OC)c1 (stereo not drawn) [Example 146, 2,4-cis-4-(9H-9-Carbazolyl)-1-(4-ethoxy-3-methoxybenzoyl)-2-propyl-1,2,3,4-tetrahydroquinoline]

- melting point: 191 to 193 °C
SMILES: COc1ccc(C(=O)N2c3ccccc3C(n3c4ccccc4c4ccccc43)CC2CC(C)C)cc1OC (stereo not drawn) [Example 41, 2,4-cis-4-(9H-9-Carbazolyl)-1-(3,4-dimethoxybenzoyl)-2-isobutyl-1,2,3,4-tetrahydroquinoline]
